Results: ChEMBL document CHEMBL1142056, “Structure-activity relationships of the oxindole growth hormone secretagogues” (Bioorg Med Chem Lett, 2005)
pIC50: −log10 of the molar value.

Assays:
[1] = target: Growth hormone secretagogue receptor type 1 (Homo sapiens, UniProt Q92847); experiment: Inhibition of [125I]ghrelin binding to human recombinant ghrelin receptor membrane preparation
[2] = Bioavailability value in rat after oral dose of 20 mg/k; assay type: ADME, organism-based; conditions: in vivo, 20 mg/kg, read-out: Bioavailabiility
[3] = Volume of distribution value intravenously administered to rats with 5 mg/kg; assay type: ADME, organism-based; parameters: dose 5 mg/kg, route intravenous; conditions: rat, in vivo, iv
[4] = Cmax value in rat after oral dose of 20 mg/k; assay type: ADME, organism-based; parameters: route oral; conditions: in vivo, 20 mg/kg
[5] = Half life value intravenously administered to rats with 5 mg/kg; assay type: ADME, organism-based; parameters: dose 5 mg/kg, route intravenous; conditions: rat, in vivo, iv
[6] = Clearance value intravenously administered to rats with 5 mg/kg; assay type: ADME, organism-based; parameters: dose 5 mg/kg, route intravenous; conditions: rat, in vivo, iv

Growth hormone secretagogue receptor type 1, sequence (Q92847 whole entry): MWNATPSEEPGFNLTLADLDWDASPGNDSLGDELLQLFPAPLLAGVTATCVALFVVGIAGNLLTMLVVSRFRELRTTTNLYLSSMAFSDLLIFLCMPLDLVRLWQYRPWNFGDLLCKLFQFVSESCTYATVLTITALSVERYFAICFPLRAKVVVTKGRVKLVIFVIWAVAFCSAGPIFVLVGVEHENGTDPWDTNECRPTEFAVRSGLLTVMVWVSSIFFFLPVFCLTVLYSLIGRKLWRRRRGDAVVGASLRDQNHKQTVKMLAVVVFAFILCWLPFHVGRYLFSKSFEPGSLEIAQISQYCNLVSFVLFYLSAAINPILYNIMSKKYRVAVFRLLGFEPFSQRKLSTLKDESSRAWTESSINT

Structure (SMILES) | pIC50 [1] | also measured
CCN(CC)CCN1C(=O)C(O)(c2ccccc2)c2c1cc(C(N)=O)cc2C(F)(F)F (configuration not stated) | 6.94 | –
CCN(CC)CCN1C(=O)C(O)(c2ccccc2Cl)c2c1cc(C(N)=O)cc2C(F)(F)F (configuration not stated) | 8.40 | –
CCN(CC)CCN1C(=O)[C@@](O)(c2ccc(Cl)cc2)c2c1cc(C(N)=O)cc2C(F)(F)F | 7.08 | –
CCN(CC)CCN1C(=O)[C@@](O)(c2ccc(Cl)cc2Cl)c2c1cc(C(N)=O)cc2C(F)(F)F | 10.70 | bioavailability [2]: 28%; Vd [3]: 5.4 L/kg; Cmax [4]: 491 ng/mL; half-life [5]: 1.6 h; clearance [6]: 51 mL/min/kg
CCN(CC)CCN1C(=O)[C@@](O)(c2cccc(Cl)c2Cl)c2c1cc(C(N)=O)cc2C(F)(F)F | 8.80 | –
CCN(CC)CCN1C(=O)[C@@](O)(c2cccc(OC)c2)c2c1cc(C(N)=O)cc2C(F)(F)F | 7.11 | –
CCN(CC)CCN1C(=O)[C@@](O)(c2cc(Cl)ccc2Cl)c2c1cc(C(N)=O)cc2C(F)(F)F | 9.62 | –
CCN(CC)CCN1C(=O)[C@@](O)(c2ccccc2OC)c2c1cc(C(N)=O)cc2C(F)(F)F | 6.80 | –
CCN(CC)CCN1C(=O)[C@@](O)(c2ccccc2Cl)c2c1cc(C(N)=O)cc2C(F)(F)F | 8.68 | –
CCN(CC)CCN1C(=O)[C@@](O)(c2c(Cl)cccc2Cl)c2c1cc(C(N)=O)cc2C(F)(F)F | 8.38 | –
CCN(CC)CCN1C(=O)[C@@](O)(c2cccc(Cl)c2)c2c1cc(C(N)=O)cc2C(F)(F)F | 7.82 | –
CCN(CC)CCN1C(=O)[C@@](O)(c2ccc(OC)cc2)c2c1cc(C(N)=O)cc2C(F)(F)F | 6.97 | –
